Reference: ChEMBL document CHEMBL3885881, “DrugMatrix”

Organism: Rattus norvegicus
Assay: DrugMatrix - Regimen: Daily Repeat
Format: toxicity, organism-based, Sprague-Dawley
Design: regimen Daily Repeat, gender Male, age 6-8 weeks
Conditions: in vivo, po, route oral GAVAGE, vehicle .5 % CMC; for ABSOLUTE BASOPHIL / ABSOLUTE EOSINOPHIL / ABSOLUTE LYMPHOCYTE / ABSOLUTE MONOCYTE / ABSOLUTE SEGMENTED NEUTROPHIL / BASOPHIL / EOSINOPHIL / ERYTHROCYTE COUNT / HEMATOCRIT / HEMOGLOBIN / LEUKOCYTE COUNT / LYMPHOCYTE / MEAN CORPUSCULAR HEMOGLOBIN / MEAN CORPUSCULAR HEMOGLOBIN CONCENTRATION / MEAN CORPUSCULAR VOLUME / MONOCYTE / NEUTROPHIL / NUCLEATED RED BLOOD CELLS / PLATELET COUNT: tissue Blood; for ALANINE AMINOTRANSFERASE / ALBUMIN / ALKALINE PHOSPHATASE / ASPARTATE AMINOTRANSFERASE / BLOOD UREA NITROGEN / CARBON DIOXIDE / CHLORIDE / CHOLESTEROL / CREATINE PHOSPHOKINASE / CREATININE / GLUCOSE / LACTATE DEHYDROGENASE / LIPASE / PHOSPHORUS / POTASSIUM / SODIUM / TOTAL BILIRUBIN / TOTAL PROTEIN / URIC ACID: tissue Plasma
[1] = 5 mg/kg, 72 h, dose level Low, time 3 day
[2] = 5 mg/kg, 120 h, dose level Low, time 5 day
[3] = 26 mg/kg, 72 h, dose level High, time 3 day
[4] = 26 mg/kg, 120 h, dose level High, time 5 day

Nc1nnc(-c2cccc(Cl)c2Cl)c(N)n1 [LAMOTRIGINE]
ABSOLUTE BASOPHIL [1]: 0 CELLS/uL | ABSOLUTE EOSINOPHIL [1]: 0 CELLS/uL | ABSOLUTE LYMPHOCYTE [1]: 10899.33 CELLS/uL | ABSOLUTE MONOCYTE [1]: 45.33 CELLS/uL | ABSOLUTE SEGMENTED NEUTROPHIL [1]: 922 CELLS/uL | BASOPHIL [1]: 0% | EOSINOPHIL [1]: 0% | ERYTHROCYTE COUNT [1]: 5.73 x10E6/uL | HEMATOCRIT [1]: 35.93% | HEMOGLOBIN [1]: 13.53 G/DL | LEUKOCYTE COUNT [1]: 11.87 x10E3/uL | LYMPHOCYTE [1]: 91.67% | MEAN CORPUSCULAR HEMOGLOBIN [1]: 23.7 pg | MEAN CORPUSCULAR HEMOGLOBIN CONCENTRATION [1]: 37.7 G/DL | MEAN CORPUSCULAR VOLUME [1]: 62.83 fL | MONOCYTE [1]: 0.33% | NEUTROPHIL [1]: 8% | NUCLEATED RED BLOOD CELLS [1]: 0.33 /100WBC | PLATELET COUNT [1]: 1386.33 x10E3/uL | ALANINE AMINOTRANSFERASE [1]: 59 u/L | ALBUMIN [1]: 4.23 G/DL | ALKALINE PHOSPHATASE [1]: 377.33 u/L | ASPARTATE AMINOTRANSFERASE [1]: 90.67 u/L | BLOOD UREA NITROGEN [1]: 15 mg/dL | CARBON DIOXIDE [1]: 25.67 mmol/L | CHLORIDE [1]: 103.33 MEQ/L | CHOLESTEROL [1]: 73.33 mg/dL | CREATINE PHOSPHOKINASE [1]: 322.33 u/L | CREATININE [1]: 0.43 mg/dL | GLUCOSE [1]: 152 mg/dL | LACTATE DEHYDROGENASE [1]: 339.67 u/L | LIPASE [1]: 10.33 u/L | PHOSPHORUS [1]: 13.67 mg/dL | POTASSIUM [1]: 6.72 MEQ/L | SODIUM [1]: 145.9 MEQ/L | TOTAL BILIRUBIN [1]: 0.2 mg/dL | TOTAL PROTEIN [1]: 5.77 G/DL | URIC ACID [1]: 1.6 mg/dL | ABSOLUTE BASOPHIL [2]: 0 CELLS/uL | ABSOLUTE EOSINOPHIL [2]: 56.33 CELLS/uL | ABSOLUTE LYMPHOCYTE [2]: 12053 CELLS/uL | ABSOLUTE MONOCYTE [2]: 415 CELLS/uL | ABSOLUTE SEGMENTED NEUTROPHIL [2]: 1309 CELLS/uL | BASOPHIL [2]: 0% | EOSINOPHIL [2]: 0.33% | ERYTHROCYTE COUNT [2]: 5.33 x10E6/uL | HEMATOCRIT [2]: 35.73% | HEMOGLOBIN [2]: 13.3 G/DL | LEUKOCYTE COUNT [2]: 13.83 x10E3/uL | LYMPHOCYTE [2]: 87% | MEAN CORPUSCULAR HEMOGLOBIN [2]: 25 pg | MEAN CORPUSCULAR HEMOGLOBIN CONCENTRATION [2]: 37.23 G/DL | MEAN CORPUSCULAR VOLUME [2]: 67.17 fL | MONOCYTE [2]: 3% | NEUTROPHIL [2]: 9.67% | NUCLEATED RED BLOOD CELLS [2]: 0 /100WBC | PLATELET COUNT [2]: 1207 x10E3/uL | ALANINE AMINOTRANSFERASE [2]: 54.33 u/L | ALBUMIN [2]: 4.4 G/DL | ALKALINE PHOSPHATASE [2]: 422.67 u/L | ASPARTATE AMINOTRANSFERASE [2]: 86.33 u/L | BLOOD UREA NITROGEN [2]: 16.67 mg/dL | CARBON DIOXIDE [2]: 23 mmol/L | CHLORIDE [2]: 104 MEQ/L | CHOLESTEROL [2]: 71.67 mg/dL | CREATINE PHOSPHOKINASE [2]: 218.33 u/L | CREATININE [2]: 0.41 mg/dL | GLUCOSE [2]: 152.67 mg/dL | LACTATE DEHYDROGENASE [2]: 99.67 u/L | LIPASE [2]: 10.33 u/L | PHOSPHORUS [2]: 12.27 mg/dL | POTASSIUM [2]: 6.44 MEQ/L | SODIUM [2]: 149.03 MEQ/L | TOTAL BILIRUBIN [2]: 0.17 mg/dL | TOTAL PROTEIN [2]: 6.17 G/DL | URIC ACID [2]: 1.8 mg/dL | ABSOLUTE BASOPHIL [3]: 0 CELLS/uL | ABSOLUTE EOSINOPHIL [3]: 0 CELLS/uL | ABSOLUTE LYMPHOCYTE [3]: 13769 CELLS/uL | ABSOLUTE MONOCYTE [3]: 39.33 CELLS/uL | ABSOLUTE SEGMENTED NEUTROPHIL [3]: 558.33 CELLS/uL | BASOPHIL [3]: 0% | EOSINOPHIL [3]: 0% | ERYTHROCYTE COUNT [3]: 5.86 x10E6/uL | HEMATOCRIT [3]: 39.23% | HEMOGLOBIN [3]: 14.47 G/DL | LEUKOCYTE COUNT [3]: 14.37 x10E3/uL | LYMPHOCYTE [3]: 95.67% | MEAN CORPUSCULAR HEMOGLOBIN [3]: 24.67 pg | MEAN CORPUSCULAR HEMOGLOBIN CONCENTRATION [3]: 36.9 G/DL | MEAN CORPUSCULAR VOLUME [3]: 66.93 fL | MONOCYTE [3]: 0.33% | NEUTROPHIL [3]: 4% | NUCLEATED RED BLOOD CELLS [3]: 0.33 /100WBC | PLATELET COUNT [3]: 1200 x10E3/uL | ALANINE AMINOTRANSFERASE [3]: 73 u/L | ALBUMIN [3]: 4.6 G/DL | ALKALINE PHOSPHATASE [3]: 355.33 u/L | ASPARTATE AMINOTRANSFERASE [3]: 139.67 u/L | BLOOD UREA NITROGEN [3]: 13 mg/dL | CARBON DIOXIDE [3]: 24.67 mmol/L | CHLORIDE [3]: 102 MEQ/L | CHOLESTEROL [3]: 91 mg/dL | CREATINE PHOSPHOKINASE [3]: 1448.33 u/L | CREATININE [3]: 0.29 mg/dL | GLUCOSE [3]: 138 mg/dL | LACTATE DEHYDROGENASE [3]: 373.67 u/L | LIPASE [3]: 10.33 u/L | PHOSPHORUS [3]: 13.67 mg/dL | POTASSIUM [3]: 7.33 MEQ/L | SODIUM [3]: 146.47 MEQ/L | TOTAL BILIRUBIN [3]: 0.2 mg/dL | TOTAL PROTEIN [3]: 6.5 G/DL | URIC ACID [3]: 3 mg/dL | ABSOLUTE BASOPHIL [4]: 0 CELLS/uL | ABSOLUTE EOSINOPHIL [4]: 0 CELLS/uL | ABSOLUTE LYMPHOCYTE [4]: 13660 CELLS/uL | ABSOLUTE MONOCYTE [4]: 181.67 CELLS/uL | ABSOLUTE SEGMENTED NEUTROPHIL [4]: 558.33 CELLS/uL | BASOPHIL [4]: 0% | EOSINOPHIL [4]: 0% | ERYTHROCYTE COUNT [4]: 5.81 x10E6/uL | HEMATOCRIT [4]: 37.13% | HEMOGLOBIN [4]: 14.03 G/DL | LEUKOCYTE COUNT [4]: 14.4 x10E3/uL | LYMPHOCYTE [4]: 95% | MEAN CORPUSCULAR HEMOGLOBIN [4]: 24.17 pg | MEAN CORPUSCULAR HEMOGLOBIN CONCENTRATION [4]: 37.8 G/DL | MEAN CORPUSCULAR VOLUME [4]: 63.93 fL | MONOCYTE [4]: 1.33% | NEUTROPHIL [4]: 3.67% | NUCLEATED RED BLOOD CELLS [4]: 0.33 /100WBC | PLATELET COUNT [4]: 1279.33 x10E3/uL | ALANINE AMINOTRANSFERASE [4]: 64.67 u/L | ALBUMIN [4]: 4.4 G/DL | ALKALINE PHOSPHATASE [4]: 331.33 u/L | ASPARTATE AMINOTRANSFERASE [4]: 78 u/L | BLOOD UREA NITROGEN [4]: 18.67 mg/dL | CARBON DIOXIDE [4]: 27.67 mmol/L | CHLORIDE [4]: 103 MEQ/L | CHOLESTEROL [4]: 75.67 mg/dL | CREATINE PHOSPHOKINASE [4]: 225 u/L | CREATININE [4]: 0.28 mg/dL | GLUCOSE [4]: 163 mg/dL | LACTATE DEHYDROGENASE [4]: 110.33 u/L | LIPASE [4]: 10.67 u/L | PHOSPHORUS [4]: 12.43 mg/dL | POTASSIUM [4]: 7.41 MEQ/L | SODIUM [4]: 147.97 MEQ/L | TOTAL BILIRUBIN [4]: 0.2 mg/dL | TOTAL PROTEIN [4]: 6.2 G/DL | URIC ACID [4]: 2.03 mg/dL
